In one experiment the target is BRD4 protein (Homo sapiens (Human), UniProt O60885). Put plainly: BRD4 protein degradation inducing action in cancer cells (immunofluorescence, Operetta). Format: cell-based. Conditions: LNCaP cells, 6 hr treatment, fluorescence intensity. In short, it runs like this:
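LNCaP prostate cancer cells in 10% FBS/RPMI1640 were exposed to compound for 6 hr at 37° C, then fixed, permeabilized and immunostained for BRD4 with Alexa Fluor 488 or 546 secondary antibodies plus Hoechst nuclear stain. Fluorescence was read by high-content imaging; DC50 is the concentration giving 50% of untreated signal, interpolated linearly between bracketing points.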

The target of the next experiment is BRD4 bromodomain 1 (Homo sapiens (Human), UniProt O60885). Put plainly: Inhibitory action on binding of BRD4 protein and ligand, Test Method 1 (TR-FRET, BRD4 bromodomain 1 TR-FRET Assay Kit). The conditions noted are these: Test Method 1, BRD4 bromodomain 1 and ligand. As to the method:
The inhibitory action of the compound of the present invention on the binding of BRD4 protein and a ligand thereof was evaluated by the time-resolved fluorescence resonance energy transfer (TR-FRET) method using BRD4 bromodomain 1 TR-FRET Assay Kit (Cayman). In this experiment, (+)-JQ1 known to have an inhibitory activity on the binding of BRD4 protein and a ligand therefor was used as a positive control drug. A test compound dissolved in DMSO was diluted with TR-FRET Assay Buffer, added to a 384 well black plate, BRD4 bromodomain 1 Europium Chelete was further added and the cells were incubated at room temperature for 15 min. Thereafter, BRD4 bromodomain 1 Ligand/APC Acceptor Mixture was added and the cells were incubated at room temperature for 1 hr. The binding amount of the BRD4 protein and ligand was measured as fluorescence intensity (excitation: 340 nm/emission: 620 nm and excitation: 340 nm/emission: 670 nm).
It was calculated from the straight line connecting the degradation rate at two points enclosing the 50% fluorescence intensity and the compound concentration.

Experiment [1] relates to human acute myeloid leukemia MV-4-11 cell transplanted mouse. Put plainly: Antitumor effect in human acute myeloid leukemia MV-4-11 cell transplanted mouse. Format: in vivo. The conditions noted are these: MV4-11, iv, 360 h, read-out: tumor growth inhibitory rate. The method, then: The in vivo antitumor effect of the compound of the present invention was studied using human acute myeloid leukemia MV-4-11 cell transplanted mouse. MV-4-11 cells were subcutaneously transplanted into the inguinal region of male, 6-week-old BALB/c nude mouse (5×10^6 cells/mouse). The compound of the present invention was administered into the tail vein on days 1, 5, 9, 13 from the time point when the assumed tumor volume determined from 1/2ab^2 (a is major axis and b is minor axis of tumor) reached about 100 mm^3 (day 1). The control group was administered with a solvent, 10% hydroxypropyl-β-cyclodextrin solution. On day 15, the tumor was isolated, the weight was measured, and the tumor growth inhibitory rate IR (%) was calculated by the following formula. tumor growth inhibitory rate IR (%)=(1−tumor weight of administration group/tumor weight of nonadministration control group)×100

In a further experiment the target is BRD4-1 (GST) (Homo sapiens (Human), UniProt O60885). Put plainly: Inhibitory action on binding of BRD4 protein and acetylated histone H4, Test Method 2 (TR-FRET). The conditions noted are these: Test Method 2, BRD4-1 (GST) and acetylated histone H4, TR-FRET. The method, then:
The inhibitory action of the compound of the present invention on the binding of BRD4 protein and a ligand thereof (acetylated histone H4) was evaluated by the time-resolved fluorescence resonance energy transfer (TR-FRET) method using EPIgeneous™ Binding Domain Kit A (Cisbio), BRD4-1 (GST) (Reaction Biology Corp) and [Lys(Ac)5/8/12/16]-Histone H4(1-21)-GGK (Biotin) (Eurogentec). In this experiment, (+)-JQ1 known to have an inhibitory activity on the binding of BRD4 protein and acetylated histone H4 therefor was used as a positive control drug. A test compound dissolved DMSO was diluted with attached Diluent Buffer, added to a 384 well white plate, and BRD4-1 (GST) and [Lys(Ac)5/8/12/16]-Histone H4(1-21)-GGK (Biotin) were further added. Thereafter, Streptavidin-d2 conjugate and Anti-GST-Eu^3+ Cryptate Conjugate were added and the cells were incubated at room temperature for 3 hr. The binding amount of the BRD4 protein and acetylated histone H4 was measured as the fluorescence intensity (excitation: 314 nm/emission: 620 nm and excitation: 314 nm/emission: 665 nm). […] It was calculated from the straight line connecting the degradation rate at two points enclosing the 50% fluorescence intensity and the compound concentration.
A general note: TR-FRET usually uses a lanthanide donor and a delayed reading to cut background.

As a reminder, the DC50 is the concentration giving 50% degradation. What is called IC50 is the point on the concentration scale where inhibition reaches its midpoint. Turning to `COC(=O)C[C@@H]1N=C(c2ccc(-c3ccc(OCC(=O)N[C@H](C(=O)N4C[C@H](O)C[C@H]4C(=O)N[C@@H](C)c4ccc(-c5scnc5C)cc4)C(C)(C)C)c(C#N)c3)cc2)c2c(sc(C)c2C)-n2c(C)nnc21` [Example 9, methyl [(6S)-4-{3′-cyano-4′-[2-({(2S)-1-[(2S,4R)-4-hydroxy-2-({(1S)-1-[4-(4-methyl-1,3-thiazol-5-yl)phenyl]ethyl}carbamoyl)pyrrolidin-1-yl]-3,3-dimethyl-1-oxobutan-2-yl}amino)-2-oxoethoxy][1,1′-biphenyl]-4-yl}-2,3,9-trimethyl-6H-thieno[3,2-f][1,2,4]triazolo[4,3-a][1,4]diazepin-6-yl]acetate], the DC50 at BRD4 protein turned out to be 0.15 nM. Moreover, the IC50 at BRD4 bromodomain 1 amounted to 47 nM. For the same molecule, in experiment [1], the inhibition in vivo at 1 mg/kg worked out at 98.5% and the inhibition in vivo at 5 mg/kg worked out at 98.4%.
On BRD4 protein, `COC(=O)C[C@@H]1N=C(c2ccc(N3CC[C@@H](Oc4ccc5oc(C(=O)N[C@H](C(=O)N6C[C@H](O)C[C@H]6C(=O)N[C@@H](C)c6ccc(-c7scnc7C)cc6)C(C)(C)C)cc5c4)C3)cc2)c2c(sc(C)c2C)-n2c(C)nnc21` [Example 142, methyl [(6S)-4-{4-[(3R)-3-{[2-({(2S)-1-[(2S,4R)-4-hydroxy-2-({(1S)-1-[4-(4-methyl-1,3-thiazol-5-yl)phenyl]ethyl}carbamoyl)pyrrolidin-1-yl]-3,3-dimethyl-1-oxobutan-2-yl}carbamoyl)-1-benzofuran-5-yl]oxy}pyrrolidin-1-yl]phenyl}-2,3,9-trimethyl-6H-thieno[3,2-f][1,2,4]triazolo[4,3-a][1,4]diazepin-6-yl]acetate] came in with a DC50 of 0.72 nM. On BRD4-1 (GST), this molecule showed an IC50 of 110 nM. Moreover, in experiment [1], the inhibition in vivo at 3 mg/kg is 97.4%.
On BRD4 protein, `COC(=O)C[C@@H]1N=C(c2ccc(-c3ccc(C(=O)N[C@H](C(=O)N4C[C@H](O)C[C@H]4C(=O)N[C@@H](C)c4ccc(-c5scnc5C)cc4)C(C)(C)C)c(Cl)c3)cc2)c2c(sc(C)c2C)-n2c(C)nnc21` [Example 157, methyl {(6S)-4-[3′-chloro-4′-({(2S)-1-[(2S,4R)-4-hydroxy-2-({(1S)-1-[4-(4-methyl-1,3-thiazol-5-yl)phenyl]ethyl}carbamoyl)pyrrolidin-1-yl]-3,3-dimethyl-1-oxobutan-2-yl}carbamoyl)[1,1′-biphenyl]-4-yl]-2,3,9-trimethyl-6H-thieno[3,2-f][1,2,4]triazolo[4,3-a][1,4]diazepin-6-yl}acetate] returned a DC50 of 0.38 nM. Besides, the concentration for half-maximal inhibition (IC50) on BRD4-1 (GST) came to 61 nM. In addition, in experiment [1], the inhibition in vivo at 1 mg/kg amounted to 95.5% and the inhibition in vivo at 3 mg/kg turned out to be 98.2%.

The record behind these values is patent US11542273B2, “Amide compound having bet proteolysis-inducing action and medicinal application thereof” (MITSUBISHI TANABE PHARMA CORPORATION, priority 2018, dated 2023).
